According to article PMC9105386, “Development and Characterization of Indole-Responsive Whole-Cell Biosensor Based on the Inducible Gene Expression System from Pseudomonas putida KT2440” (International Journal of Molecular Sciences, 2022):
pEC50: −log10 of the molar value.

Molecular target: T1, TrpI (PpTrpI/PPP_RS00425 inducible system) (Pseudomonas putida, UniProt Q88RP5)
T1 sequence (Q88RP5 1-298): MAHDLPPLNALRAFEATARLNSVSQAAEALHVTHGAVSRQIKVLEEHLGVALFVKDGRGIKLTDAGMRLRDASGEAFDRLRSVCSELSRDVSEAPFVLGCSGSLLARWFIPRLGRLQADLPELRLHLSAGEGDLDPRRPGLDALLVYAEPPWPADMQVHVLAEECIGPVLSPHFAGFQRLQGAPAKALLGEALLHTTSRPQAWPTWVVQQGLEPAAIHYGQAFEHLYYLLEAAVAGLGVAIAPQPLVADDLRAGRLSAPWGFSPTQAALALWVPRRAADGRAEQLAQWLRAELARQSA
Experiment: RFP reporter induction in whole cells, Hill fit
Assay type: cell-based
Settings: read-out: Km
Source text: RFP reporter induction in whole cells, Hill fit on TrpI (PpTrpI/PPP_RS00425 inducible system)

Compound: c1ccc2[nH]ccc2c1 [compound 1, indole]
- pEC50: 2.87
